According to patent publication US11852971B2, “Compound, photosensitive resin composition including the same, photosensitive resin layer, color filter and display device” (SAMSUNG SDI CO., LTD., priority 2019, dated 2023):

Columns and labels:
[1] = Measurement of the shortest wavelength of full width at half maximum (FWHM) with respect to maximum absorption wavelength (absorption spectrum); format: physicochemical; conditions: 0.005 wt % in PGMEA; UV-1800
Text: The shortest wavelength of the full width at half maximum (FWHM) with respect to the maximum absorption wavelengths denotes a wavelength having the smallest value (a) among the energy widths (Δλ) of the maximum absorption wavelength (b) in the absorption spectrum of a particular phthalocyanine compound. (Refer to the FIGURE)
Evaluation 1: Measurement of the Shortest Wavelength of Full Width at Half Maximum (FWHM) with respect to Maximum Absorption Wavelength
The compounds according to Synthesis Example 1 to Synthesis Example 21 and Comparative Synthesis Example 1 to Comparative Synthesis Example 6 were prepared at a concentration of 0.005 wt % using a diluting solvent (PGMEA). Absorption spectra were obtained for each of the phthalocyanine compounds according to Synthesis Example 1 to […] and Comparative Synthesis Example 1 to Comparative Synthesis Example 6, and the results are shown in Table 1 (UV-1800, SHTMADZU).

[2] = Solubility measurement in dilution solvent (PGMEA); format: physicochemical; conditions: PGMEA added to 0.5 g compound, stirred 100 rpm, one hour, 25° C.
Method: Evaluation 2: Solubility Measurement Solubility of the compounds according to Synthesis Examples 11 to 21 and Comparative Synthesis Examples 1 to 6 were measured by adding a dilution solvent (PGMEA) to 0.5 g of each compound and respectively stirring the mixtures (MIXROTAR VMR-5, Iuchi Seiei Dou Co.) at 100 rpm for one hour at 25° C., and the results are shown in Table 2. Solubility Evaluation Criteria Greater than or equal to 10 wt % of a compound (a solute) based on a total amount of a diluting solvent was dissolved: ∘ Less than 10 wt % of a compound (a solute) based on a total amount of a diluting solvent was dissolved: X

Compound	The shortest wavelength (nm) of full width at half maximum (FWHM) with respect to maximum absorption wavelength [1] [nm]	Solubility [2]
Cc1ccc(Oc2c(Cl)c(Cl)c3c(c2Cl)/C2=N/c4c5c(Cl)c(Oc6ccc(C)cc6C(C)(C)C)c(Cl)c(Cl)c5c5[n]4[Zn][n]4/c(c6ccccc6/c4=N/C3=N2)=N\C2=NC(=N\5)/c3c(Cl)c(Cl)c(Cl)c(Cl)c32)c(C(C)(C)C)c1 [Synthesis Example 10]	616	○
CC(C)(C)c1ccccc1Oc1c(Cl)c(Cl)c2c(c1Cl)/C1=N/c3c4c(Cl)c(Cl)c(Cl)c(Cl)c4c4[n]3[Zn][n]3/c(c5ccccc5/c3=N/C2=N1)=N\C1=NC(=N\4)/c2c(Cl)c(Cl)c(Cl)c(Cl)c21 [Synthesis Example 4]	617	○
CC(C)(C)c1ccc(Oc2c(Cl)c(Cl)c3c(c2Cl)/C2=N/c4c5ccccc5c5[n]4[Zn][n]4/c(c6ccccc6/c4=N/C3=N2)=N\C2=NC(=N\5)/c3ccccc32)c(C(C)(C)C)c1 [Synthesis Example 21]	608	X (Less than 10 wt % of a compound (a solute) based on a total amount of a diluting solvent was dissolved)
CC(C)(C)c1ccccc1Oc1c(Cl)c(Cl)c2c(c1Cl)/C1=N/c3c4c(Cl)c(Oc5ccccc5C(C)(C)C)c(Cl)c(Cl)c4c4[n]3[Zn][n]3/c(c5ccccc5/c3=N/C2=N1)=N\C1=NC(=N\4)/c2c(Cl)c(Cl)c(Cl)c(Cl)c21 [Synthesis Example 3]	618	○
Cc1cccc(C)c1Oc1c(Cl)c(Cl)c2c(c1Cl)/C1=N/c3c4c(Cl)c(Cl)c(Cl)c(Cl)c4c4[n]3[Zn][n]3/c(c5ccccc5/c3=N/C2=N1)=N\C1=NC(=N\4)/c2c(Cl)c(Cl)c(Cl)c(Cl)c21 [Synthesis Example 7]	618	○
